Calls of active or inactive are those of the source. The rule behind the calls is not given here.
Experiments:
Mus musculus [1] = assay: Analgesic activity in sc dosed mouse by Nilsen method; assay type: functional
Mus musculus [2] = assay: Analgesic activity in sc dosed mouse by hot plate method; assay type: functional
Mus musculus [3] = assay: Analgesic activity in mouse at 20 mg/kg, sc by hot plate method; assay type: functional, organism-based; design: dose 20 mg/kg
Mus musculus [4] = assay: Analgesic activity in mouse at 100 mg/kg, sc by hot plate method; assay type: functional, organism-based; design: dose 100 mg/kg
Rhesus monkey [5] = assay: Suppression of narcotic abstinence syndrome in monkey at 3 to 24 mg/kg; assay type: functional, organism-based; conditions: Macaca mulatta
Rhesus monkey [6] = assay: Toxicity in monkey assessed as precipitation of abstinence at 3 to 24 mg/kg; assay type: organism-based, Macaca mulatta; design: dose 3-24 mg/kg; conditions: in vivo
Rhesus monkey [7] = assay: Toxicity in nonwithdrawn monkey assessed as precipitation of abstinence at 5 mg/kg; assay type: organism-based, Macaca mulatta; design: dose 5 mg/kg; conditions: in vivo
Rhesus monkey [8] = assay: Suppression of narcotic abstinence syndrome in monkey at 5 mg/kg administered as single dose; assay type: functional, organism-based; design: dose 5 mg/kg; conditions: Macaca mulatta
Rhesus monkey [9] = assay: Toxicity in monkey assessed as morphine-like dependence liability; assay type: organism-based, Macaca mulatta; conditions: in vivo
Mus musculus [10] = assay: Analgesic activity in mouse at 50 mg/kg, sc by hot plate method; assay type: functional, organism-based; design: dose 50 mg/kg

SMILES | ED50 (Mus musculus [1]) | ED50 (Mus musculus [2]) | further results
COc1ccc2c3c1O[C@H]1[C@@H](O)C=C[C@H]4[C@@H](C2)N(C)CC[C@@]341 [CODEINE] | 4.5 mg/kg | 7.5 mg/kg | –
CN1CC[C@]23c4c5ccc(O)c4O[C@H]2[C@@H](O)C=C[C@H]3[C@H]1C5 [MORPHINE] | 0.8 mg/kg | 1.2 mg/kg | –
Cc1[nH]c(C)c(C(=O)OC2CCN(CCc3ccccc3)CC2)c1C | – | – | Activity (Mus musculus [3]): Active
Cc1[nH]c(C)c(C(=O)OC2CCN(Cc3ccccc3)CC2)c1C.Cl.O | – | 6.3 mg/kg | –
Cc1[nH]c(C)c(C(=O)OC2CCN(C)C2)c1C.Cl.O (stereo unspecified) | – | 64.3 mg/kg | –
Cc1[nH]c(C)c(C(=O)OC2CCCN(C)C2)c1C (stereo unspecified) | – | – | Activity (Mus musculus [4]): inactive
Cc1c(C(=O)OC2CCN(C)CC2)c(C)n(C)c1C | – | – | Activity (Mus musculus [3]): Active
Cc1[nH]c(C)c(C(=O)O[C@@H]2[C@H]3O[C@H]4C[C@@H]2N(C)[C@H]3C4)c1C | 28.9 mg/kg | 6 mg/kg | Activity (Rhesus monkey [5]): inactive; Activity (Rhesus monkey [6]): Non-toxic
Cc1[nH]c(C)c(C(=O)O[C@H]2C[C@H]3CC[C@@H](C2)N3C)c1C.O.O=C(O)C(F)(F)F | – | 21.3 mg/kg | –
Cc1[nH]c(C)c(C(=O)OC2CCN(C)CC2)c1C.O=C(O)C(F)(F)F | 7.1 mg/kg | 4.9 mg/kg | Activity (Rhesus monkey [7]): Non-toxic; Activity (Rhesus monkey [8]): inactive; Activity (Rhesus monkey [9]): Non-toxic
Cc1[nH]c(C)c(C(=O)OC2CC(C)(C)NC(C)(C)C2)c1C | – | – | Activity (Mus musculus [4]): inactive
Cc1[nH]c(C)c(C(=O)O[C@@H]2C[C@H]3CC[C@@H](C2)N3C)c1C | – | – | Activity (Mus musculus [10]): Active

Source: ChEMBL document CHEMBL3244420, “Pyrrole esters of tropanols and related structures as analgesics” (J Med Chem, 1977)
